Test results reported in patent publication US10071981B2, “Method of priming plants against abiotic stress factors” (Research Foundation of The City University of New York, priority 2014, dated 2018).

Legend:
Assay type in all cases: in vivo
[1] = tested on: Medicago truncatula plants; test: Lipid peroxidation (leaf MDA/TBARS content) in drought-stressed plants; details: for leaf MDA content (lipid peroxidation): diluted in 70% (v/v) MetOH, FIG. 1
Source text: Cellular damage in leaves can be measured by determining lipid peroxidation (Malondialdehyde [MDA] content) and hydrogen peroxide (H2O2) levels. Lipid peroxidation is a widely used stress indicator of plant membranes. For example, the method described by Heath and Packer is the basic protocol used or adapted in numerous studies dealing with lipid peroxidation. See Heath R L, Packer L. 1968, Photoperoxidation in isolated chloroplasts. I. Kinetics and stoichiometry of fatty acid peroxidation. Archives in Biochemistry and Biophysics 125, 189-198. Measuring hydrogen peroxide levels is also well known in the art.
Mature (40 d) Medicago truncatula ecotype Jemalong A17 plants were used for the purposes of this study. These were grown in soil medium under controlled, optimal growth conditions and were then subjected to drought stress. Drought was imposed by withholding watering for 9 d (for detailed growth and stress conditions see Filippou et al., 2011). Both NOSH and NOSH-aspirin were applied at 100 μM concentration by foliar spraying at the start of stress imposition. The hybrid donors were diluted in 70% (v/v) and 30% (v/v) methanol, 20% (v/v) acetone or 20% (v/v) DMSO. Cellular damage was evaluated by lipid peroxidation levels (TBARS content) and hydrogen peroxide (H2O2) content as previously described (Filippou et al., 2011; Tanou et al., 2012), while osmoprotective capacity was evaluated by proline content (ninhydrin assay) as previously described (Antoniou et al., 2013). Real-time RT-PCR gene expression analysis was carried out using a Biorad IQ5 thermocycler as previously described (Filippou et al., 2013b). Relative quantification of gene expression and statistical analysis of all qRT-PCR data (pairwise fixed reallocation randomization test) were performed using the REST software according to Pfaffl et al. (2002). The actin 11 gene was used as a housekeeping reference gene. All analyses were carried out using three independent biological pools of samples as replicates (with a minimum of three independent plants per pooled sample).
An examination of cellular damage levels was performed by means of spectrophotometric determination of lipid peroxidation.

Medicago sativa plants [2] = test: Hydrogen peroxide content in leaves of drought-stressed plants; details: FIG. 14A
Description: (§1) Mature (42 d) Medicago sativa plants were used for the purposes of this study. These were grown in soil medium under controlled, optimal growth conditions and were then subjected to drought stress. Drought was imposed by withholding watering until drought symptoms (loss of turgour, wilting, chlorosis) were observed (6 d after stress imposition). Samples were then re-watered to observe recovery potential after 1 day (7 d). Both NOSH and NOSH-aspirin were applied at 100 μM concentration by foliar spraying at the start of stress imposition. The hybrid donors were diluted in 30% (v/v) methanol. Physiological parameters (stomatal conductance and chlorophyll fluorescence) were measured with a DT-Porometer AP4 (Delta-TDevices, Cambridge, UK) and an OptiSci OS-30p chlorophyll fluorometer (Opti-Sciences, Hudson, N.H., USA) respectively (Filippou et al., 2013). Chlorophyll fluorescence (Fv/Fm) of leaves represents the maximum photochemical efficiency of photosystem II (PSII). Cellular damage was evaluated by lipid peroxidation levels (TBARS content), nitric oxide (NO) content (nitrosative stress) and hydrogen peroxide (H2O2) content (oxidative stress) as previously described (Filippou et al., 2011; Tanou et al., 2012), while osmoprotective capacity was evaluated by proline content (ninhydrin assay) as previously described (Antoniou et al., 2013). Antioxidant enzyme activities (SOD and CAT) were measured as previously described (Filippou et al., 2014). Real-time RT-PCR gene expression analysis was carried out using a Biorad IQ5 thermocycler as previously described (Filippou et al., 2013). Relative quantification of gene expression and statistical analysis of all qRT-PCR data (pairwise fixed reallocation randomization test) were performed using the REST software according to Pfaffl et al. (2002). The actin 11 gene was used as a housekeeping reference gene. All analyses were carried out using three independent biological pools of samples as replicates (with a minimum of fifteen independent plants per pooled sample). The experimental setup is shown schematically in FIG. 8.
Abiotic stress conditions are associated with increased levels of reactive oxygen (ROS) and reactive nitrogen (RNS) species content, which are toxic for the cells. During such conditions, the production of ROS and RNS exceeds the capacity of the antioxidative defense systems to remove them, causing nitro-oxidative stress.

Medicago sativa plants [3] = test: Proline content (ninhydrin assay) in leaves of drought-stressed plants; details: 100 μM; vs drought-stressed alone samples; FIG. 15
Description: as §1, with “Antioxidant enzyme activities (SOD and CAT) were measured as previously described (Filippou et al., 2014). Real-time RT-PCR gene expression analysis was carried out using a Biorad IQ5 thermocycler as previously described (Filippou et al., 2013). Relative quantification of gene expression and statistical analysis of all qRT-PCR data (pairwise fixed reallocation randomization test) were performed using the REST software according to Pfaffl et al. (2002). The actin 11 gene was used as a housekeeping reference gene. All analyses were carried out using three independent biological pools of samples as replicates (with a minimum of fifteen independent plants per pooled sample). The experimental setup is shown schematically in FIG. 8.” left out

Medicago sativa plants [4] = test: Real-time RT-PCR gene expression in leaves of drought-stressed plants; details: FIG. 17; for relative gene expression of genes examined (NR, GST17, Cu/ZnSOD, FeSOD, APX, PIP): after rewatering, vs drought-stressed alone plants; for SOD isoforms (Cu/ZnSOD, FeSOD) relative gene expression: pretreated and stressed vs stressed alone plants
Description: as §1
Finally, qRT-PCR gene expression analysis was carried out (FIG. 17) for key defense-related genes, including major enzymatic antioxidants (GST17, Cu/ZnSOD, FeSOD, cAPX) linked with ROS scavenging, as well as genes involved in NO biosynthesis (NR). In addition, an aquaporin (PIP) was also examined which is linked with response to water deficit and transport.

[5] = tested on: Medicago truncatula plants; test: Proline content (ninhydrin assay) in leaves of drought-stressed plants; details: 100 μM, 30% (v/v) MetOH; vs drought-stressed alone samples; FIG. 6
Description: Mature (40 d) Medicago truncatula ecotype Jemalong A17 plants were used for the purposes of this study. These were grown in soil medium under controlled, optimal growth conditions and were then subjected to drought stress. Drought was imposed by withholding watering for 9 d (for detailed growth and stress conditions see Filippou et al., 2011). Both NOSH and NOSH-aspirin were applied at 100 μM concentration by foliar spraying at the start of stress imposition. The hybrid donors were diluted in 70% (v/v) and 30% (v/v) methanol, 20% (v/v) acetone or 20% (v/v) DMSO. Cellular damage was evaluated by lipid peroxidation levels (TBARS content) and hydrogen peroxide (H2O2) content as previously described (Filippou et al., 2011; Tanou et al., 2012), while osmoprotective capacity was evaluated by proline content (ninhydrin assay) as previously described (Antoniou et al., 2013). […] Relative quantification of gene expression and statistical analysis of all qRT-PCR data (pairwise fixed reallocation randomization test) were performed using the REST software according to Pfaffl et al. (2002). […] In addition, proline content was evaluated as proline is a major osmoprotective molecule involved in the defense response of plants to abiotic stress conditions (Filippou et al., 2013b).

[6] = 100 μM foliar spraying, drought 9 d
[7] = 100 μM, 6 d drought, vs drought-stressed samples
[8] = rewatering at 7 d vs respective pretreated, drought-stressed samples at 6 d

Compound: O=C(CCCO[N+](=O)[O-])Oc1ccc(-c2cc(=S)ss2)cc1 [NOSH]
- leaf MDA content (lipid peroxidation) [1, 6]: lowered
- H2O2 content (Medicago sativa plants [2]; [7]): significantly reversed
- H2O2 content (Medicago sativa plants [2]; [8]): ameliorated even further
- proline content (Medicago sativa plants [3]): significantly lower proline content
- relative gene expression of genes examined (NR, GST17, Cu/ZnSOD, FeSOD, APX, PIP) (Medicago sativa plants [4]): general suppression of most genes examined
- SOD isoforms (Cu/ZnSOD, FeSOD) relative gene expression (Medicago sativa plants [4]): significant transcriptional regulation (induction)

Compound: O=C(CCCO[N+](=O)[O-])Oc1ccccc1C(=O)Oc1ccc(-c2cc(=S)ss2)cc1 [NOSH-A]
- lipid peroxidation levels (leaf MDA content) ([1]; 100 μM foliar spraying, 30% (v/v) MetOH, drought 9 d, vs drought-stressed control, FIG. 2): significantly lower lipid peroxidation levels
- leaf MDA content (lipid peroxidation) [1, 6]: statistically significant protection
- lipid peroxidation levels ([1]; 100 μM, solvent 20% DMSO or 20% acetone (solvent itself toxic)): lower lipid peroxidation levels
- proline content [5]: increased proline content
- H2O2 content (Medicago sativa plants [2]; [7]): significantly reversed
- H2O2 content (Medicago sativa plants [2]; [8]): ameliorated even further
- proline content (Medicago sativa plants [3]): significantly lower proline content
- relative gene expression of genes examined (NR, GST17, Cu/ZnSOD, FeSOD, APX, PIP) (Medicago sativa plants [4]): general suppression of most genes examined
- SOD isoforms (Cu/ZnSOD, FeSOD) relative gene expression (Medicago sativa plants [4]): significant transcriptional regulation (induction)
